Assay results taken from the NIST ThermoML archive (doi:10.1016/j.jct.2014.01.020).

Test: xn = mol fraction of the nth substance listed
Conditions: Liquid; for mass density: Vibrating tube method; for viscosity: 101 kPa, Concentric cylinders viscometry

C1CCCCC1 [cyclohexane] + CCCCO
mass density [kg/m3]
Conditions	x2 = 0.1	x2 = 0.2	x2 = 0.3003	x2 = 0.4005	x2 = 0.4997	x2 = 0.6001	x2 = 0.6999	x2 = 0.7998	x2 = 0.8999
293.15 K, 100 kPa	779.5	781.4	783.9	786.6	789.7	793.1	796.8	800.7	805
293.15 K, 1000 kPa	780.2	782	784.5	787.3	790.3	793.7	797.4	801.3	805.6
293.15 K, 2000 kPa	781	782.9	785.3	788.1	791.1	794.5	798.2	802	806.3
293.15 K, 5000 kPa	783.5	785.3	787.7	790.5	793.4	796.9	800.4	804.3	808.5
293.15 K, 10000 kPa	787.3	789.2	791.6	794.3	797.2	800.5	804	807.9	812
293.15 K, 15000 kPa	791.1	792.8	795.2	797.8	800.8	804	807.5	811.3	815.4
293.15 K, 20000 kPa	794.5	796.3	798.6	801.3	804.2	807.4	810.8	814.5	818.6
303.15 K, 100 kPa	770.1	772	774.6	777.6	780.9	784.5	788.5	792.3	797.1
303.15 K, 1000 kPa	770.8	772.8	775.3	778.3	781.6	785.2	789.1	793.2	797.8
303.15 K, 2000 kPa	771.7	773.7	776.2	779.2	782.5	786	789.9	794.1	798.6
303.15 K, 5000 kPa	774.4	776.3	778.8	781.7	785	788.5	792.4	796.4	800.9
303.15 K, 10000 kPa	778.5	780.4	782.9	785.7	788.9	792.5	796.2	800.2	804.6
303.15 K, 15000 kPa	782.4	784.3	786.7	789.6	792.7	796.1	799.8	803.8	808.1
303.15 K, 20000 kPa	786.2	788	790.4	793.2	796.3	799.6	803.3	807.2	811.5
303.15 K, 30000 kPa	793.2	795	797.4	800.2	803.1	806.4	810	813.8	817.9
303.15 K, 40000 kPa	799.6	801.4	803.8	806.5	809.4	812.6	816.1	819.8	823.8
313.15 K, 100 kPa	760.4	762.5	765.2	768.4	771.8	775.7	779.8	784.3	789.1
313.15 K, 1000 kPa	761.3	763.3	766.1	769.2	772.7	776.5	780.6	785	789.8
313.15 K, 2000 kPa	762.2	764.3	767	770.1	773.6	777.4	781.5	785.9	790.7
313.15 K, 5000 kPa	765.1	767.1	769.7	772.8	776.2	780	784.1	788.4	793.1
313.15 K, 10000 kPa	769.5	771.5	774.1	777.1	780.5	784.1	788.1	792.4	797
313.15 K, 15000 kPa	773.6	775.6	778.2	781.2	784.4	788	791.9	796.1	800.6
313.15 K, 20000 kPa	777.7	779.5	782.1	785	788.3	791.8	795.6	799.8	804.2
313.15 K, 30000 kPa	785.1	787	789.4	792.3	795.4	798.9	802.6	806.6	811
313.15 K, 40000 kPa	791.9	793.7	796.2	799	802	805.3	809	812.9	817.1
313.15 K, 50000 kPa	798.3	800.1	802.5	805.1	808.1	811.4	815	818.8	822.9
313.15 K, 60000 kPa	804.2	806	808.4	810.9	813.8	817	820.5	824.4	828.3
323.15 K, 100 kPa	750.6	752.8	755.6	758.9	762.6	766.6	771.1	775.7	780.7
323.15 K, 1000 kPa	751.6	753.8	756.6	759.9	763.5	767.5	771.9	776.6	781.6
323.15 K, 2000 kPa	752.6	754.8	757.6	760.8	764.5	768.5	772.9	777.5	782.5
323.15 K, 5000 kPa	755.6	757.8	760.5	763.7	767.3	771.3	775.6	780.1	785.1
323.15 K, 10000 kPa	760.3	762.5	765.2	768.3	771.8	775.7	779.9	784.4	789.2
323.15 K, 15000 kPa	764.8	766.9	769.6	772.7	776.1	779.9	783.9	788.3	793.1
323.15 K, 20000 kPa	769	771.1	773.7	776.7	780.1	783.8	787.9	792.2	796.8
323.15 K, 30000 kPa	776.9	779	781.6	784.4	787.7	791.2	795.2	799.3	803.9
323.15 K, 40000 kPa	784.2	786.1	788.6	791.4	794.6	798.1	801.8	805.9	810.3
323.15 K, 50000 kPa	790.8	792.8	795.1	797.9	801	804.4	808	812	816.3
323.15 K, 60000 kPa	797.2	799	801.4	804.1	807	810.5	814	817.9	822.1
323.15 K, 70000 kPa	802.9	804.6	806.9	809.6	812.6	815.8	819.3	823.2	827.3
323.15 K, 80000 kPa	808.6	810.1	812.3	815	817.9	821.1	824.5	828.3	832.3
333.15 K, 100 kPa	740.7	743	745.9	749.4	753.1	757.4	762.1	767	772.4
333.15 K, 1000 kPa	741.7	744	746.9	750.3	754.1	758.4	763	767.9	773.3
333.15 K, 2000 kPa	742.8	745.1	748	751.4	755.2	759.4	764	768.9	774.2
333.15 K, 5000 kPa	746.1	748.3	751.1	754.5	758.2	762.4	766.9	771.8	777
333.15 K, 10000 kPa	751.1	753.3	756.1	759.4	763	767.1	771.5	776.2	781.3
333.15 K, 15000 kPa	755.9	758	760.8	764	767.5	771.5	775.8	780.4	785.4
333.15 K, 20000 kPa	760.5	762.5	765.2	768.4	771.8	775.7	780	784.5	789.4
333.15 K, 30000 kPa	768.9	770.8	773.4	776.4	779.8	783.6	787.6	792	796.7
333.15 K, 40000 kPa	776.5	778.3	780.8	783.8	787	790.7	794.6	798.8	803.4
333.15 K, 50000 kPa	783.5	785.2	787.7	790.6	793.7	797.2	801.1	805.2	809.7
333.15 K, 60000 kPa	790	791.7	794.1	797	800.1	803.4	807.1	811.2	815.6
333.15 K, 70000 kPa	796.1	797.7	800	802.9	805.8	809.2	812.9	816.8	821.2
333.15 K, 80000 kPa	801.9	803.3	805.7	808.4	811.3	814.6	818.3	822.1	826.3
333.15 K, 90000 kPa	807.3	808.7	810.9	813.7	816.5	819.8	823.3	827.2	831.3
333.15 K, 100000 kPa	812.4	813.8	816	818.7	821.5	824.7	828.1	831.9	836

viscosity [mPa·s]
Conditions	x2 = 0	x2 = 0.1073	x2 = 0.1991	x2 = 0.2998	x2 = 0.4006	x2 = 0.4997	x2 = 0.6001	x2 = 0.7001	x2 = 0.7997	x2 = 0.8996
293.15 K	0.98	0.997	1.042	1.11	1.277	1.462	1.69	1.95	2.243	2.576
303.15 K	0.824	0.837	0.87	0.924	1.038	1.17	1.337	1.528	1.747	1.998
313.15 K	0.701	0.708	0.731	0.772	0.855	0.95	1.074	1.218	1.382	1.573
323.15 K	0.593	0.596	0.613	0.659	0.704	0.776	0.868	0.99	1.106	1.255
333.15 K	0.522	0.522	0.535	0.565	0.605	0.657	0.723	0.8	0.889	1.011
